row,logP,Structure (SMILES)
1,3.43,Cc1cnc(NC(=O)C2=C(O)c3ccccc3S(=O)(=O)N2C)s1
2,2.14,CCN(CC)CCOC(=O)c1ccc(N)cc1
3,0.58,COS(=O)c1ccc(O)cc1 (stereo not given)
4,3.51,CCCCNc1ccc(C(=O)OCCN(C)C)cc1
5,3.15,CC(C)(C)S(=O)(=O)CC(Cc1cccc2ccccc12)C(=O)NC(Cc1cnc[nH]1)C(=O)NC(CC1CCCCC1)C(O)C(O)C1CC1 (stereo not given)
6,-1.85,O=C1O[C@H]([C@@H](O)CO)C(O)=C1O
7,5,CCCc1c2c(c(O)c3c(=O)cc(C(=O)O)oc13)CCCC2
8,4.12,CCc1cc(CC(C#N)C#N)cc(CC)c1O
9,2.75,CC(C)(C)S(=O)(=O)CC(Cc1ccccc1)C(=O)NC(Cc1cnc[nH]1)C(=O)NC(CC1CCCCC1)C(O)C(O)C1CC1 (stereo not given)
10,4.19,COc1ccccc1OCCNCC(O)COc1cccc2[nH]c3ccccc3c12 (stereo not given)
11,5.7,CCCCCCCCCNCc1ccc(C)cc1

row,Structure (SMILES),logP
1,N#CC(C#N)Cc1ccc(O)cc1,3.08
2,CN1C(C(=O)Nc2ccccn2)=C(O)c2ccccc2S1(=O)=O,3.06
3,COc1ccc(Cc2nccc3cc(OC)c(OC)cc23)cc1OC,2.95
4,N[C@@H](Cc1ccccc1)C(=O)O (racemic),-1.38
